Tests used:
[1] = target: T1, PAC2-K681A (Mus musculus, UniProt Q9ES52, K681A); assay: Biolayer interferometry, PAC2-K681A; format: binding; settings: 20 μM analyte; K681A vs wild-type PAC2
T1 construct: PAC1 and PAC2 consists of phosphatase and C2 domain (residues aa 402-861 and aa 402-857 respectively); made in house; host or cells: E. coli BL21 co-transformed with pBirAcm
T1 sequence (Q9ES52 402-857 K681A): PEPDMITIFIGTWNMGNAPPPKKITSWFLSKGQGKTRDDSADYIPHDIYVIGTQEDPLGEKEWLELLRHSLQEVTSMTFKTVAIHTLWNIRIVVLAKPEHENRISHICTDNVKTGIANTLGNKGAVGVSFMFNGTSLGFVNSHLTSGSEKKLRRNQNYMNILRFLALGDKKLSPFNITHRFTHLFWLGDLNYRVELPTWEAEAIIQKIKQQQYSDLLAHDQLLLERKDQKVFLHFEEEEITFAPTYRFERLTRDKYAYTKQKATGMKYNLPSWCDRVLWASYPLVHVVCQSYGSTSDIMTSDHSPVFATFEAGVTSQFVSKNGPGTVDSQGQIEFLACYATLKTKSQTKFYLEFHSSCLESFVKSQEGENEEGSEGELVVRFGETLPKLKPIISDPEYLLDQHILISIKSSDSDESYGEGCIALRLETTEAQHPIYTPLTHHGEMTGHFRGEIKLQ
Experimental: Expression of PAC2-Avi tag for Biolayer interferometry. A sequence corresponding to Avi-tag ([…]) was added to the c-terminal end of the PAC2 in LIC-HMT-PAC2 expressing vector via standard restriction digestion and ligation. The LIC-HMT-PAC2-Avi expressing vector was then co-transformed into E. coli BL21 cells with pBirAcm expression vector in 1:1 molar ratio. Overnight culture was inoculated with a 250-fold dilution to start the actual culture. The cells were grown at 37° C. in LB medium (supplemented with 50 μg/mL of kanamycin and 10 μg/mL of chloramphenicol) with shaking speed of 225 rpm. When OD600 reached about 0.6, 5 mM of biotin in bicine buffer pH 8.3 was added to the culture to have final concentration of 125 μM of biotin. The culture was then cooled down to room temperature before the addition of 0.4 mM isopropyl-B-D-1-thiogalactopyranoside (IPTG) to induce the expression of the recombinant protein with Avi-tag. The rest of the method is identical as written in “Expression of PAC2 for crystallography”.
Biolayer interferometry. […] The association was measured for 600 s at an analyte concentration of 20 μM followed by dissociation for 300 s in the same buffer as the baseline. The raw data was analyzed using the Octet Red Data Analysis software (ver. 8.2). […]

[2] = tested on: ConA-induced liver injury; assay: ConA-induced liver injury model; format: in vivo, mouse
Source text: Concanavalin A (ConA) induced liver injury model is an immune-mediated liver injury model, resembling viral and autoimmune hepatitis in humans. Intravenous delivery of ConA in mice is known to activate T cells, resulting in increased inflammatory cytokines such as TNF-α, IFN-r and IL-6 as well as decreased anti-inflammatory cytokine IL-10. The T cell infiltration into the liver leads to consequences of hepatocyte apoptosis and necrosis, resulting in increased levels of liver enzymes ALT and AST in plasma. (Zhou 2015) Methods: Five groups (n=5 each) of C57 mice were treated with a blank control, compound I-1 alone (10 mg/kg/d), ConA (15 mg/kg), ConA+compound I-1 (3 mg/kg/d) or ConA+compound I-1 (10 mg/kg/d). In each instance, compound I-1 was given 5 days before ConA injection (if applicable) via oral gavage twice a day. One hour after the last drug administration, ConA (15 mg/kg) was delivered intravenously. 12 hours after the ConA injection, orbital blood was taken from the eye and the enzyme biochemistry (plasma) and blood cell type tests were performed by analyzers.

[3] = C57 mice, ConA 15 mg/kg i.v., compound 3 or 10 mg/kg/d oral gavage, 12 hours after ConA
[4] = repeat experiment, 10 mg/kg/d, dexamethasone 0.5 mg/kg/d as positive control

Row | Structure (SMILES) | binding to PAC2 with K681A substitution (BLI) [1] | BUN [2, 3] | TBIL [2, 3] | plasma ALT [2, 3] | plasma AST [2, 3] | ConA-induced ALT level [2, 4] | ConA-induced AST level [2, 4]
1 | CC12CCC3C(C)(C)C(N)CCC3(C)C1Cc1cc(O)cc(O)c12 (stereo not shown) [Compound I-2] | impairs | – | – | – | – | – | –
2 | Cc1cc(O)cc2c1C1(C)CCC3C(C)(C)CCCC3(C)C1C2 (stereo not shown) [Compound I-1] | – | significantly reduced | significantly reduced | significantly reduced | significantly reduced | significantly lowered | significantly lowered
